Measured values taken from paper PMC5597618, “Identification and characterization of the novel reversible and selective cathepsin X inhibitors” (Scientific Reports, 2017).

Legend:
[1] = target: T1, Cathepsin B (endopeptidase a.) (Homo sapiens, UniProt P07858); assay: Ki against cathepsin B endopeptidase activity (Z-RR-AMC); format: biochemical; settings: SigmaPlot at 3 different substrate concentrations; pH 6.0
T1 construct: made in house; host or cells: E. coli
Protocol: (§1) Recombinant or native human cathepsins were used: recombinant cathepsin X and cathepsin S were expressed in Pichia pastoris, recombinant cathepsins B and L in E. coli, [43], native cathepsin H was isolated from human liver. Assay buffers for determining activities of cathepsins X and L consisted of 100 mM sodium acetate buffer, pH 5.5, for cathepsins H, S and B (endopeptidase activity) of 100 mM phosphate buffer pH 6.8, 6.5 and 6.0, respectively and for cathepsin B (exopeptidase activity) of 60 mM acetate buffer pH 5.0. Each assay buffer contained 0.01% Triton X-100 to prevent false positive inhibition due to aggregation of compounds[45], 5 mM cysteine, 1.5 mM EDTA and 0.1% PEG 8000. Enzymes were activated at 37 °C for 5 min before the assays.
(§2) Ki was determined by measuring the initial rate of hydrolysis at three different substrate concentrations (Supplementary Table S2) in the presence of seven different compound concentrations (0, 20, 40, 60, 80, 100 and 200 μM). 90 μL of the activated cathepsin was added to a black 96-well plate with 5 μL of the substrate and 5 μL of the compound. Formation of the fluorescent degradation product was monitored continuously at 460 nm ± 10 nm with excitation at 380 nm ± 20 nm (for AMC substrates) and, as noted above for Abz substrates, at 37 °C. All measurements were performed twice and in duplicate. The resulting data were analyzed by non-linear regression using the software SigmaPlot®, Enzyme Kinetics Module™ 1.3 and were fitted to the equation v = v max [S]/([S] (1 + [I]/αK i ) + K m (1 + [I]/K i )) (first group of compounds). For Ki determination against cathepsin X for the compounds from the second group, progress curves in the absence and presence of each putative inhibitor were fitted to the reaction mechanism presented in Fig. 3b. In this case the resulting data as well as reactivation curves were fitted to the equation system presented in Fig. 3c using ENZO application. For calculation of kinetic parameters from reaction progress curves the fluorescence coefficient for conversion of arbitrary fluorescence units to concentration was first determined. The fluorescence coefficient was calculated as the slope from the plot of initial substrate concentration vs. height of the plateau of the progress curve after complete hydrolysis of increasing concentrations of substrate, using linear regression.
(§3) Supplementary Table S2. Substrates used for the various cathepsins and their concentrations […]
(§4) Enzyme Substrate Concentration (µM) Reference/Company cathepsin X Abz-FEK(Dnp)-OH 3.25, 6.5, 13 Puzer et al.3 cathepsin B - endopept. Z-RR-AMC 60, 180, 360 Bachem cathepsin B - exopept. Abz-GIVRAK(Dnp)-OH 1, 3, 6 Bachem cathepsin S Z-VVR-AMC 0.5, 1, 1.5 Biomol cathepsin L Z-FR-AMC 0.5, 1, 4 Bachem cathepsin H Z-R-AMC 20, 80, 160 Biomol […]

Cathepsin H = target: T2, Cathepsin H (Homo sapiens, UniProt P09668); assay: Ki against cathepsin H (Z-R-AMC); format: biochemical; settings: SigmaPlot at 3 different substrate concentrations; pH 6.8
T2 construct: native cathepsin H was isolated from human liver; from tissue; host or cells: human liver
T2 sequence (P09668 116-335 limits assumed, other chains not shown): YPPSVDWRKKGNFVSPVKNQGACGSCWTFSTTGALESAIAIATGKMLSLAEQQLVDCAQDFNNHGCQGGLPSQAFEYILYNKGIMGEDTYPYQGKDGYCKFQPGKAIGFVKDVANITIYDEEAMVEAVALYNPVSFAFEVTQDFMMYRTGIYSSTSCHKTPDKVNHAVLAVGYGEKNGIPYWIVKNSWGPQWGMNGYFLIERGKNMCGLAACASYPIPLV
Protocol: as §1, §2, §3, §4

Ki [1]: 310 ± 68.3 µM | Ki (Cathepsin H): > 1000 µM
SMILES: CC(C)n1cnnc1SCC(=O)c1ccc2c(c1)OCCO2 [Compound 22, 1-(2,3-Dihydrobenzo[b][1,4]dioxin-6-yl)-2-((4-isopropyl-4H-1,2,4-triazol-3-yl)thio)ethan-1-one]
